Assay results reported in article PMC7324353 (European Journal of Medicinal Chemistry, 2020).
Entries after “also recorded” stand apart in the source; their conditions may differ.

Tests used:
male Sprague-Dawley rats = assay: Von Frey; format: in vivo, rat; conditions: baseline dropped to about 20 after CFA
HepaRG = conditions: HepaRG, 50, 100, 1000 and 5000 μM, 6 h, 12 h, 24 h
[1] = system: primary human hepatocytes (PHH); assay: Reduced glutathione; format: cell-based; conditions: 500 or 1000 μM, 3 h, 6 h, 12 h
CD1 male mice [2] = assay: In vivo liver function tests and serum creatinine; set-up: species or system mouse; conditions: 600 mg/kg; for liver function tests (ALT, AST, ALP) in serum: serum after 12 h
CD1 mice = assay: NAPQI detection in serum by LC-MS/MS; format: in vivo, mouse; conditions: 600 mg/kg, ip or po
CD1 male mice [3] = assay: Liver histology and immunohistochemistry; format: in vivo, mouse; conditions: for H&E-stained liver sections / apoptotic nuclei (TUNEL) / hepatic tight junctions (ZO-1 staining): 600 mg/kg; for H&E-stained liver sections: CD1 mice
male CD1 mice [4] = conditions: 600 mg/kg, n = 20 mice per group
[5] = system: primary human hepatocytes (PHH); assay: LDH release in primary human hepatocytes; conditions: 500 or 1000 μM, 3 h, 6 h, 12 h, in comparison to ApAP
CYP2D6 = CYP2D6 (Homo sapiens, UniProt P10635); assay: Vivid CYP450 screening assay, CYP2D6; format: biochemical
CYP3A4 = CYP3A4 (Homo sapiens, UniProt P08684); conditions: titration curves for 2D6 and 3A4; isozyme not given
male CD1 mice [6] = assay: Baker's yeast-induced hyperthermia; format: in vivo, mouse; conditions: 80 mg/kg po, n = 10, 2 h after drug (6-h time point)
[7] = cited from earlier work

Chain of CYP2D6 (P10635 whole entry): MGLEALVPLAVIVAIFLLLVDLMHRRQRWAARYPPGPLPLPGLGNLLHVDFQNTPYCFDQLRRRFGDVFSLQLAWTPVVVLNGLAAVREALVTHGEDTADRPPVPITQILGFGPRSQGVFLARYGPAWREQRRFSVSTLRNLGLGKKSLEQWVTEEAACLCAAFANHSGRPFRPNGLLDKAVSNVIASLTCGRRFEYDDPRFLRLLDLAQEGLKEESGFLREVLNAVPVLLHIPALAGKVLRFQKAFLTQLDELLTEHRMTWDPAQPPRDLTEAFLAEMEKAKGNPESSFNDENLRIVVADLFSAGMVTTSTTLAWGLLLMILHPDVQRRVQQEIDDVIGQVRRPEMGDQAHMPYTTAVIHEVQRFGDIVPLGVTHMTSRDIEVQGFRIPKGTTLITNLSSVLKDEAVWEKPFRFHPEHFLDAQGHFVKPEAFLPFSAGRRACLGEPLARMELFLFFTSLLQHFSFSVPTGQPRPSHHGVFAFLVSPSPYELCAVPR
Chain of CYP3A4 (P08684 whole entry): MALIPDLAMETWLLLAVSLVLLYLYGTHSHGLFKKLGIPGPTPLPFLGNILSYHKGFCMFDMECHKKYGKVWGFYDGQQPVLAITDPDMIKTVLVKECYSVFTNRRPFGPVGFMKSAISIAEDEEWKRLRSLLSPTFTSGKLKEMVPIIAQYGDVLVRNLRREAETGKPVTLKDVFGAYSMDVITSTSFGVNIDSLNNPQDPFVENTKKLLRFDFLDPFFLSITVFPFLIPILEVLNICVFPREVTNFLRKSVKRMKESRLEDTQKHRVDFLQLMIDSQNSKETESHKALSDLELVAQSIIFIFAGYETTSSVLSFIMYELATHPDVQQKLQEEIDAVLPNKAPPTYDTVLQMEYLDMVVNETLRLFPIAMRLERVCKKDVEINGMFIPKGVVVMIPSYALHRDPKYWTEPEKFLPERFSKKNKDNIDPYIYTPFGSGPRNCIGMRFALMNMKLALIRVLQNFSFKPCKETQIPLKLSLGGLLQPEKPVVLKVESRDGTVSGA

| Compound | latency for withdrawal of the CFA-injected left hind foot (male Sprague-Dawley rats) | hepatotoxicity (LDH release, reduced GSH), dose and time-dependent effect (HepaRG) | amount of reduced GSH [1] | liver function tests (ALT, AST, ALP) in serum (CD1 male mice [2]) | NAPQI generation in serum (CD1 mice) | H&E-stained liver sections (CD1 male mice [3]) | apoptotic nuclei (TUNEL) (CD1 male mice [3]; mice) | hepatic tight junctions (ZO-1 staining) (CD1 male mice [3]; mice) | mice alive after 48 h (male CD1 mice [4]) [mice] | LDH release [5] | inhibitory effects on CYP2D6 (CYP2D6) | concentrations at which inhibition is noted (CYP3A4) [nM] | serum creatinine (renal function) (CD1 male mice [2]) | nitrotyrosine in liver (marker of mitochondrial free radical formation) (CD1 male mice [3]; toxic dose, mice) | antipyretic effect (male CD1 mice [6]) | hepatotoxicity ([7]; compared with ApAP) | in vivo analgesic profile ([7]; compared with ApAP) | in vivo metabolism ([7]; into the main metabolite 2) | antipyresis ([7]; stated in abstract, no reference given) |
| --- | --- | --- | --- | --- | --- | --- | --- | --- | --- | --- | --- | --- | --- | --- | --- | --- | --- | --- | --- |
| CNC(=O)c1ccccc1S(=O)(=O)NCC(=O)Nc1ccc(O)cc1 [3b, 2-[[2-(4-Hydroxyanilino)-2-oxo-ethyl]sulfamoyl]-N-methylbenzamide] | increased | lack of hepatotoxicity | consistently increased | marked reduction in LFTs | did not result in the formation of NAPQI | healthy liver architecture was maintained | but not in 3b and 3r | preserved | 20 | consistently decreased | – | – | – | – | – | – | – | – | – |
| O=C(CNS(=O)(=O)c1ccccc1C(=O)NCCc1ccc(O)c(O)c1)Nc1ccc(O)cc1 [3r, N-[2-(3,4-dihydroxyphenil)ethyl]-2-[[2-(4-hydroxyanilino)-2-oxo-ethyl]sulfamoyl] benzamide] | increased | lack of hepatotoxicity | consistently increased | marked reduction in LFTs | did not result in the formation of NAPQI | healthy liver architecture was maintained | but not in 3b and 3r | preserved | 20 | consistently decreased | only marginal inhibitory effects | > 1000 | – | – | – | – | – | – | – |
| CC(=O)Nc1ccc(O)cc1 [ApAP, N-Acetyl-4-aminophenol, reference compound] | increased | – | – | Increased levels; also recorded: significantly high | detected NAPQI generation | centrilobular hepatic hemorrhagic necrosis | A large number of apoptotic nuclei | Loss of hepatic tight junctions | – | – | – | – | moderately elevated; also recorded: significantly high | large amounts of nitrotyrosine | effectively reduced fever | – | – | – | – |
| O=C(CN1C(=O)c2ccccc2S1(=O)=O)Nc1ccc(O)cc1 [compound 1, N-(4-hydroxyphenyl)-2-(1,1,3-trioxo-1,2-benzothiazol-2-yl)acetamide] | – | – | – | – | – | – | – | – | – | – | – | – | – | – | – | considerably decreased | maintained the in vivo analgesic profile of ApAP | quickly metabolized in vivo | not antipyretic |
